Eleven compounds from ChEMBL document CHEMBL6182836 (RSC Med Chem, 2025) can be followed below.

SMILES strings stand for the structures. The source made the active and inactive calls.

A word on the IC50: it is the concentration that gives 50% inhibition. In general, half-life refers to the time needed for the level to fall by half in the phase considered. As a reminder, the GI50 is the concentration giving 50% growth inhibition. One may read the LC50 as the concentration lethal to half of the exposed cells or organisms. As usually defined, the TGI is the concentration giving total growth inhibition.

In data set [1] the target is Acetylcholinesterase (Homo sapiens, UniProt P22303). Put plainly: Inhibition of AChE (unknown origin).
Data set [2] concerns the target Cholinesterase (Homo sapiens, UniProt P06276). The experiment in a line: Inhibition of BChE (unknown origin).
Data set [3] concerns Cortical neurone. The experiment in a line: Neuroprotective activity against glutamate-induced excitotoxicity in Wistar rat primary cortical neurons assessed as cell death at 1 uM pretreated with glutamate followed by compound addition measured after 24 hrs by LDH assay relative to control. Type of data set: functional.
A short description of data set [4]: Neurotoxicity in Wistar rat primary cortical neurons assessed as inhibition of cell viability incubated for 24 hrs by LDH assay. Type of data set: toxicity, cell-based, Cortical neurone. Conditions: for IC50 at 24 h: Wistar, primary cortical neurons; for Activity: cortical neurone, 24 h.
Data set [5] concerns the target Acetylcholinesterase (Electrophorus electricus, UniProt O42275). The experiment in a line: Inhibition of electric eel AChE using acetylthiocholine iodide as substrate measured for 30 mins by Ellman's method. For orientation: DTNB colorimetry detects thiols as they appear.
Data set [6] can be described thus: Neurotoxicity in Wistar rat primary cortical neurons assessed as cell viability at 0.001 to 100 uM incubated for 24 hrs by LDH assay. Particulars: cortical neurone, dose 0.001-100 µM. The data set is classed as toxicity, cell-based.
Data set [7] addresses Cholinesterase (Equus caballus, UniProt P81908).
Description: Inhibition of equine serum BuChE using butyrylthiocholine iodide as substrate measured for 30 mins by Ellman's method
The test system of data set [8] is Cortical neurone. The experiment in a line: Neuroprotective activity against glutamate-induced excitotoxicity in Wistar rat primary cortical neurons assessed as cell death at 1 uM pretreated with compound for 24 hrs followed by incubation with glutamate for 20 mins by LDH assay relative to control. Type of data set: functional. Conditions: time 1460 min, 24.33 h.

For data set [9], the system named is Astrocyte. Put plainly: Neuroprotective activity against glutamate-induced excitotoxicity in Wistar rat astrocytes co-cultured with neurons assessed as prevention of retraction of dendritic spines at 10 uM pretreated with glutamate followed by compound addition measured after 24 hrs by fluorescence based analysis. Type of data set: functional, cell-based.
A short description of data set [10]: Neuroprotective activity against glutamate-induced excitotoxicity in Wistar rat hippocampal neurons assessed as increase in intracellular ATP level pretreated with glutamate followed by compound addition measured after 24 hrs by CellTiter-Glo assay (reference value: 70 %). The data set is classed as functional, Hippocampal neuron. (In ATP-based viability assays light output follows the ATP content of the culture.)

The subject of data set [11] is Astrocyte. Put plainly: Neuroprotective activity against glutamate-induced excitotoxicity in Wistar rat astrocytes assessed as decrease in LDH release at 10 uM pretreated with glutamate followed by compound addition measured after 24 hrs by spectrophotometric analysis relative to control. More on the design: scale not given: the % may be the effect or the level left. The data set is classed as functional. (In general: Release of lactate dehydrogenase indicates damage to the cell membrane.)

A short description of data set [12]: Stability in human plasma at 200 uM measured after 240 mins by HPLC-UV analysis. Particulars: 4 h. Type of data set: ADME, cell-free.
Data set [13] is described as follows: Stability in human plasma at pH 7.4 assessed as half life at 200 uM measured up to 240 mins by HPLC-UV analysis. Type of data set: ADME, cell-free.
For data set [14], the system named is Astrocyte. Put plainly: Neuroprotective activity against glutamate-induced excitotoxicity in Wistar rat astrocytes co-cultured with neurons assessed as prevention of disruption of cytoskeleton at 10 uM pretreated with compound for 24 hrs followed by incubation with glutamate for 20 mins by fluorescence based analysis. Type of data set: functional, cell-based. Conditions: time 1460.0 min.

Data set [15] concerns Astrocyte. The experiment in a line: Neuroprotective activity against glutamate-induced excitotoxicity in Wistar rat astrocytes co-cultured with neurons assessed as prevention of disruption of cytoskeleton at 10 uM pretreated with glutamate followed by compound addition measured after 24 hrs by fluorescence based analysis. The data set is classed as functional, cell-based.

The conditions of data set [16]: mouse, astrocyte, 24 h.
Description: Blood-brain barrier transwell (BBB-T) permeability in mouse bEnd.3 cells (luminal side) to C57BL/6 mouse astrocyte (abluminal side) measured after 24 hrs by Transwell assay
Data set [17] is described as follows: Stability in human plasma assessed as compound degradation at 200 uM measured after 240 mins by HPLC-UV analysis. The data set is classed as ADME, cell-free. Conditions: read-out: Drug degradation.
Data set [18] in a line: in vitro. Particulars: human, HepG2 cells.
Description: Cytotoxicity against human HepG2 cells assessed as inhibition of cell growth incubated for 24 hrs by SRB assay
Data set [19] can be described thus: Neuroprotective activity against glutamate-induced excitotoxicity in Wistar rat hippocampal neurons assessed as increase in intracellular ATP level pretreated with compound for 24 hrs followed by incubation with glutamate for 20 mins by CellTiter-Glo assay (reference value: 70 %). The data set is classed as functional, Hippocampal neuron. Conditions: time 1460 min; 24.33 h.

For data set [20], the system named is HepG2. Conditions: human, hepg2, 24 h.
Description: Cytotoxicity against human HepG2 cells assessed as cell population mortality incubated for 24 hrs by SRB assay
For data set [21], the system named is Astrocyte. The experiment in a line: Neuroprotective activity against glutamate-induced excitotoxicity in Wistar rat astrocytes co-cultured with neurons assessed as prevention of collapse of dendritic spines at 10 uM pretreated with compound for 24 hrs followed by incubation with glutamate for 20 mins by fluorescence based analysis. Type of data set: functional, cell-based. Particulars: time 1460.0 min.

The test system of data set [22] is HepG2. Particulars: human, hepg2, 24 h. The source holds these as a separate data set.
Description: Cytotoxicity against human HepG2 cells assessed as total growth inhibition incubated for 24 hrs by SRB assay
In data set [23] the test system is Astrocyte. The experiment in a line: Neuroprotective activity against glutamate-induced excitotoxicity in Wistar rat astrocytes co-cultured with neurons assessed as protection against cell injury at 10 uM pretreated with compound for 24 hrs followed by incubation with glutamate for 20 mins by fluorescence based analysis. Type of data set: functional. Conditions: time 1460.0 min.

For data set [24], the system named is Astrocyte. The experiment in a line: Neuroprotective activity against glutamate-induced excitotoxicity in Wistar rat astrocytes co-cultured with neurons assessed as prevention of retraction of dendritic spines at 10 uM pretreated with compound for 24 hrs followed by incubation with glutamate for 20 mins by fluorescence based analysis. Type of data set: functional, cell-based. Particulars: time 1460.0 min.

The test system of data set [25] is Astrocyte. The experiment in a line: Neuroprotective activity against glutamate-induced excitotoxicity in Wistar rat astrocytes co-cultured with neurons assessed as prevention of collapse of dendritic spines at 10 uM pretreated with glutamate followed by compound addition measured after 24 hrs by fluorescence based analysis. Type of data set: functional, cell-based.

Data set [26] in a line: Stability in human plasma assessed as compound remaining at 200 uM incubated for 240 mins by HPLC-UV analysis. The data set is classed as ADME, cell-free. Particulars: read-out: Stability.
Data set [27] can be described thus: Cytotoxicity against human HepG2 cells assessed as fold decrease in GI50 incubated for 24 hrs by SRB assay relative to tacrine. The data set is classed as toxicity, cell-based. Particulars: read-out: RatioGI50.
For data set [28], the system named is Astrocyte. The experiment in a line: Neuroprotective activity against glutamate-induced excitotoxicity in Wistar rat astrocytes co-cultured with neurons assessed as decrease in LDH release at 10 uM pretreated with compound for 24 hrs followed by glutamate addition for 20 mins by spectrophotometric analysis relative to control. Particulars: time 1460 min, 24.33 h. Type of data set: functional. Details: scale not given: the % may be the effect or the level left.

Acetylcholinesterase (Homo sapiens, UniProt P22303), sequence (P22303 whole entry): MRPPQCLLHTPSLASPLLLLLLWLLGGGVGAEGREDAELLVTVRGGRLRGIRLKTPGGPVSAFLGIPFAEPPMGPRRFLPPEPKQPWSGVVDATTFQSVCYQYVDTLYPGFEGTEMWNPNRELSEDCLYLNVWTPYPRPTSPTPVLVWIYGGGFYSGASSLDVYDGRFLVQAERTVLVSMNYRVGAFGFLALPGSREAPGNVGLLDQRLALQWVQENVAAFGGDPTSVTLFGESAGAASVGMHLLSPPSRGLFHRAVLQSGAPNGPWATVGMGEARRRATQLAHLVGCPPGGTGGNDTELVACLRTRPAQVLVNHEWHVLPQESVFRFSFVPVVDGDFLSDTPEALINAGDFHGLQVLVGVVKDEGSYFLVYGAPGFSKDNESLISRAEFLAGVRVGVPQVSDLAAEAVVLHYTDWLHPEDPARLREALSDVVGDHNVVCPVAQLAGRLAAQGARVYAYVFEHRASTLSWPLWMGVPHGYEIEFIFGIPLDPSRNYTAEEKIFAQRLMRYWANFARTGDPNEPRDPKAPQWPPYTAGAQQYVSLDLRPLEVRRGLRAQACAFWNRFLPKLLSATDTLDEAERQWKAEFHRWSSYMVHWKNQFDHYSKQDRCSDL
Cholinesterase (Homo sapiens, UniProt P06276), sequence (P06276 whole entry): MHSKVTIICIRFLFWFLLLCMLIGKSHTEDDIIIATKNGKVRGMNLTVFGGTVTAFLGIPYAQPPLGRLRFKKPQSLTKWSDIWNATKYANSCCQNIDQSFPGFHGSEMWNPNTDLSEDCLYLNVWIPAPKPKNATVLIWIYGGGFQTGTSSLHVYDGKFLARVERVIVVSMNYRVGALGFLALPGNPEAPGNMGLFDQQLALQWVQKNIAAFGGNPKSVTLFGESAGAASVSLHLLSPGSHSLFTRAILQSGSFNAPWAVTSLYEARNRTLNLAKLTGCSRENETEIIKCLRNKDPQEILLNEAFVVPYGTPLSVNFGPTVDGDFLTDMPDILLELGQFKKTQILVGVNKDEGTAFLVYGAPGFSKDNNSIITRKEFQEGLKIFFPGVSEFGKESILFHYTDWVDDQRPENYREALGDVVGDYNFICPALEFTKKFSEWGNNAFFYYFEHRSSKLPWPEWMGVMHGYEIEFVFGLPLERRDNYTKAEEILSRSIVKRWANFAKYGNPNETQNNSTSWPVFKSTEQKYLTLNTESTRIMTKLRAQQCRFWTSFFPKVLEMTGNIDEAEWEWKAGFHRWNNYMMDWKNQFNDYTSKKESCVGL
Acetylcholinesterase (Electrophorus electricus, UniProt O42275), sequence (O42275 whole entry): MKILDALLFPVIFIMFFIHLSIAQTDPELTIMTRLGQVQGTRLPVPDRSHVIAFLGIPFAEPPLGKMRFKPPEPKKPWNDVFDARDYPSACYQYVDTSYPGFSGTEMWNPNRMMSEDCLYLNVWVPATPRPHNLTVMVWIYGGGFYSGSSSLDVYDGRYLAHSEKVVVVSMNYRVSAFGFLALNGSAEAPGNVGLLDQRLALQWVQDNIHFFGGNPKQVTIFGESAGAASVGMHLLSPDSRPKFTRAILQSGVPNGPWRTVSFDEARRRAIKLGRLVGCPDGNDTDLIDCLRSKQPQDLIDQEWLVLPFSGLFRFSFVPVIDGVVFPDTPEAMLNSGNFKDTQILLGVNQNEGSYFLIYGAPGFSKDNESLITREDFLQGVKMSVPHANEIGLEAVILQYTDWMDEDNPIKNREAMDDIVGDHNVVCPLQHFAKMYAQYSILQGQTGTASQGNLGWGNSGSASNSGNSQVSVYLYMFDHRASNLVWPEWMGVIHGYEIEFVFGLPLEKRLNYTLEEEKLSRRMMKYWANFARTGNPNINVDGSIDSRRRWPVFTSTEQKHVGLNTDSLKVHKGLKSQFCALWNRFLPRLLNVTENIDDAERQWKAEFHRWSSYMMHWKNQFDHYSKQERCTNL
Cholinesterase (Equus caballus, UniProt P81908), sequence (P81908 whole entry): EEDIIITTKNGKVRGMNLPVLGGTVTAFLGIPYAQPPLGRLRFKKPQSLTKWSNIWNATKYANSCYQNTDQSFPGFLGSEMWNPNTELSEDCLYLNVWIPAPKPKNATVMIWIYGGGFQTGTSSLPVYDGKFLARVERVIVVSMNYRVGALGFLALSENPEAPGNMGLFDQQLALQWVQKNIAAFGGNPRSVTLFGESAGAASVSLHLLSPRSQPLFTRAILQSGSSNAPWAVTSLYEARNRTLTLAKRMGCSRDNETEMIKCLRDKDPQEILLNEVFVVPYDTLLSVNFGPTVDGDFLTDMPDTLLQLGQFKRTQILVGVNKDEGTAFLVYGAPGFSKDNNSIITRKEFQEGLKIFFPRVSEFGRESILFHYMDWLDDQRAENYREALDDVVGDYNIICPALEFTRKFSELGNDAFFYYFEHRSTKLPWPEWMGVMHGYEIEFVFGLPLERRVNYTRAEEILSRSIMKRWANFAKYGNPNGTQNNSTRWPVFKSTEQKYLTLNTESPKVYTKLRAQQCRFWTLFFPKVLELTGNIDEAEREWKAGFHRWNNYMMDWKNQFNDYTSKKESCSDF

As to `COc1cc2c(cc1OC)CC(CN1CCN(CCCNc3c4c(nc5cc(Cl)ccc35)C[C@H]3C=C(C)C[C@@H]4C3)CC1)C2`, the IC50 in [1] is 2.61 nM; in [2] it was 349 nM.
For `Cc1cc(=O)[nH]c2c1C(=O)C(NCNc1c3c(nc4ccccc14)CCCC3)=CC2=O` the same measures were 11.1 nM and 180 nM.
With `COc1ccc(C(C#N)N2CCN(CC(=O)Nc3c4c(nc5ccccc35)CCC4)CC2)c(OC)c1` (racemic), the Activity in data set [3] is given as 44.97%; in data set [4] it was “Toxic”; in data set [6] it was “Non-toxic”; in data set [8], 63.15%. For the same compound, the IC50 at 24 h in [4] came to 364 µM. Besides, the IC50 entry in data set [5] is “Not_active”; in data set [7], 910 nM.
Take `COc1cccc(C(C#N)N2CCN(CC(=O)Nc3c4c(nc5ccccc35)CCC4)CC2)c1OC` (racemic): the result in data set [9], in data set [14], in [15], in data set [21], in data set [23] and in data set [24] was Active. Moreover, the outcome in data set [25] was Active. Besides, the Activity in [10] is 51.85%; in data set [3], 47.45%; in data set [11], approximately 52%; in [4] it was “Toxic”; in data set [19], 31.11%; in data set [6] it was “Non-toxic”. Besides, the Activity was approximately 33% in [28] and 71.05% in data set [8]. In data set [12], the Stability entry is “Stable”. Besides, the half-life at 200 µM in [13] is 288 min. In [16], the permeability is 58%. Further, in data set [4], the IC50 at 24 h worked out at 476 µM. Further, the metabolised at 4 h, 200 µM in [17] was approximately 48%. In data set [18], this compound came in with a GI50 at 24 h of 93.5 µM. Further, the IC50 was found to be 440 nM in data set [5] (read-out: IC50) and 310 nM in data set [7]. For the same compound, the LC50 in data set [20] was more than 200 µM. The TGI in [22] was 188.16 µM. Moreover, the remaining at 4 h, 200 µM in data set [26] came out at 52.4%. The selectivity ratio at 24 h in [27] is 8.
In the case of `O=C(NCCCNc1c2c(nc3ccccc13)CCC2)c1cnc(Cl)c(Cl)c1`, the IC50 in data set [1] came out at 52 nM; in data set [2], 158 nM.
Turning to `CN(C)c1ccc(C(C#N)N2CCN(CC(=O)Nc3c4c(nc5ccccc35)CCC4)CC2)cc1` (racemic), the Activity in data set [3] is recorded as 22.03%; in data set [4], “Toxic”; in data set [6], “Non-toxic”; in [8], 34.63%. In addition, the concentration for half-maximal inhibition (IC50) at 24 h in data set [4] was determined as 218 µM. Moreover, the results for the half-inhibitory concentration (IC50) in [5] (read-out: IC50) and in [7] were 480 nM and 410 nM, respectively.
Regarding `COc1ccc(C(C#N)N2CCN(CC(=O)Nc3c4c(nc5ccccc35)CCC4)CC2)cc1` (racemic), the Activity in data set [3] is listed as 28.81%; in data set [4] it was “Toxic”; in [6] it was “Non-toxic”; in [8], 40.71%. Further, in [4], the IC50 at 24 h worked out at 436 µM. In addition, the IC50 result in data set [5] is “Not_active”; in data set [7], 640 nM.
Regarding `COc1cc(OC)cc(C(C#N)N2CCN(CC(=O)Nc3c4c(nc5ccccc35)CCC4)CC2)c1` (racemic), the Activity in data set [3] is given as 35.59%; in data set [4], “Toxic”; in data set [6], “Non-toxic”; in [8] it was 62.67%. For the same compound, in [4], the IC50 at 24 h was determined as 298 µM. The IC50 result in data set [5] is “Not_active”; in [7], 690 nM.
In the case of `CC12CC3CC(C)(C1)CC(N)(C3)C2` [MEMANTINE], the Activity came to 44.44% in data set [10], 46.61% in [3], 10.37% in [19] and 36.84% in data set [8]. Moreover, in data set [4], the IC50 at 24 h stood at 272 µM.
As to `COc1ccc(C(C#N)N2CCN(CC(=O)Nc3c4c(nc5ccccc35)CCC4)CC2)cc1OC` (racemic), the Activity in data set [3] was 38.98%; in data set [4] it was “Toxic”; in data set [6], “Non-toxic”; in data set [8], 58.28%. Moreover, in data set [4], the IC50 at 24 h was determined as 260 µM. In addition, the results for the IC50 entry in data set [5] and in [7] were “Not_active” and 440 nM, respectively.
Take `COc1ccc(OC)c(C(C#N)N2CCN(CC(=O)Nc3c4c(nc5ccccc35)CCC4)CC2)c1` (racemic): the Activity in data set [3] is 30.83%; in [4], “Toxic”; in [6], “Non-toxic”; in [8] it was 63.52%. Further, the IC50 at 24 h in [4] was 427 µM. The IC50 entry in [5] was “Not_active”; in [7] it was 1720 nM.
